This passage reports IC50 results from patent US20230406885A1, “CYCLIC PEPTIDES FOR TRAPPING INTERLEUKIN-1 BETA” (MERCK SHARP & DOHME LLC, priority 2022, published 2023).

*1 amine or outer side, *2 acyl side, *3 side chain or, on linkers, in order; H or OH if unused. Where a SMILES comes first, the peptide text is derived from it. [ ]: non-standard residue; d: D form. Trp(4-Cl)(βS-Me) = C[C@@H](c1c[nH]c2cccc(Cl)c12)[C@H](N)C(=O)O; Ala(piperidin-4-yl) = O=C([C@H](CC1CCN([*:3])CC1)N[*:1])[*:2]; Bip(4'-COOH) = N[C@@H](Cc1ccc(-c2ccc(C(=O)O)cc2)cc1)C(=O)O; Phe(4-COOH) = N[C@@H](Cc1ccc(C(=O)O)cc1)C(=O)O; h3Pal(5-CN) = N#Cc1cncc(CC[C@H](N)C(=O)O)c1; Pro(4R-NH2) = N[C@H]1CN[C@H](C(=O)O)C1; 1Nal = N[C@@H](Cc1cccc2ccccc12)C(=O)O; hTyr = N[C@@H](CCc1ccc(O)cc1)C(=O)O; 3Pal = N[C@@H](Cc1cccnc1)C(=O)O; 4Pal = N[C@@H](Cc1ccncc1)C(=O)O; dDab = NCC[C@@H](N)C(=O)O; Orn = NCCC[C@H](N)C(=O)O; dNMeA = CN[C@H](C)C(=O)O; Dap = NC[C@H](N)C(=O)O; Aib = CC(C)(N)C(=O)O

A word on the IC50: it is the point on the concentration scale where inhibition reaches its midpoint.

The target in the assay is T1, Recombinant human IL-1β (Homo sapiens, UniProt P01584).
T1 construct: purchased BioLegend 579404
T1 sequence (P01584 117-269): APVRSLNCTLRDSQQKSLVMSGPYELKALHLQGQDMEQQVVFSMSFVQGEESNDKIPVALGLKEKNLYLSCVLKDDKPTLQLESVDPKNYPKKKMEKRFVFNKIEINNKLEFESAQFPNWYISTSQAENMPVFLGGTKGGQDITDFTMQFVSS
In words: IL-6 assay in MRC5 cells: inhibition of IL-1β induced IL-6 secretion (AlphaLISA). Format: cell-based. The note with it: inhibition of IL-1β induced IL-6 secretion in MRC5 cells; IL-1β pre-incubated 1 hour with compound; read-out: MRC5 IC50. The method in brief: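 IL-1β at 2×EC80 in seeding medium (EMEM, 0.025% BSA) preincubated 1 h at ambient temperature with compound, then 3000 MRC5 cells/well added and incubated overnight at 37 °C, 5% CO2. IL-6 in conditioned medium quantified by AlphaLISA; IC50 from 4-parameter logistic fit.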
(Bead proximity is the source of the signal in Alpha formats.)
Turning to `CC(C)C[C@@H]1NC(=O)[C@H](Cc2cccc3ccccc23)NC(=O)[C@H](Cc2ccc(-c3ccc(C(=O)O)cc3)cc2)NC(=O)CNC(=O)[C@@H](C)N(C)C(=O)[C@H](C)NC(=O)[C@H]([C@@H](C)c2c[nH]c3cccc(Cl)c23)NC(=O)[C@@H]2C[C@@H](N)CN2C(=O)CNC(=O)[C@H](Cc2ccc(C(=O)O)cc2)NC(=O)[C@H](Cc2c[nH]c3ccccc23)NC(=O)[C@H](Cc2ccc(-c3ccc(C(=O)O)cc3)cc2)NC(=O)CNC(=O)C(C)(C)NC1=O` [Example 33] (cyclo([Bip(4'-COOH)]W[Phe(4-COOH)]G[Pro(4R-NH2)][Trp(4-Cl)(βS-Me)]A[dNMeA]G[Bip(4'-COOH)][1Nal]L[Aib]G)), the IC50 amounted to 0.544 nM.

In the case of `C[C@@H]1C(=O)NCC(=O)N[C@@H](Cc2ccc(-c3ccc(C(=O)O)cc3)cc2)C(=O)N[C@@H](Cc2cccc3ccccc23)C(=O)N[C@@H](CN)C(=O)NC(C)(C)C(=O)N[C@@H](CCc2cncc(C#N)c2)C(=O)N[C@@H](Cc2ccc(-c3ccc(C(=O)O)cc3)cc2)C(=O)N[C@@H](Cc2c[nH]c3ccccc23)C(=O)N[C@@H](Cc2ccc(C(=O)O)cc2)C(=O)NCC(=O)N2C[C@H](N)C[C@H]2C(=O)N[C@@H]([C@@H](C)c2c[nH]c3cccc(Cl)c23)C(=O)N[C@@H](CC(=O)O)C(=O)N1C` [Example 34] (cyclo([Bip(4'-COOH)]W[Phe(4-COOH)]G[Pro(4R-NH2)][Trp(4-Cl)(βS-Me)]D[dNMeA]G[Bip(4'-COOH)][1Nal][Dap][Aib][h3Pal(5-CN)])), the half-maximal inhibitory concentration (IC50) came to 0.0755 nM.

On to `CC(C)C[C@@H]1NC(=O)[C@H](Cc2cccc3ccccc23)NC(=O)[C@H](Cc2ccc(-c3ccc(C(=O)O)cc3)cc2)NC(=O)CNC(=O)[C@@H](C)N(C)C(=O)[C@H](CC(=O)O)NC(=O)[C@H]([C@@H](C)c2c[nH]c3cccc(Cl)c23)NC(=O)[C@@H]2C[C@@H](N)CN2C(=O)CNC(=O)[C@H](Cc2ccc(C(=O)O)cc2)NC(=O)[C@H](Cc2c[nH]c3ccccc23)NC(=O)[C@H](Cc2ccc(-c3ccc(C(=O)O)cc3)cc2)NC(=O)CNC(=O)C(C)(C)NC1=O` [Example 35] (cyclo([Bip(4'-COOH)]W[Phe(4-COOH)]G[Pro(4R-NH2)][Trp(4-Cl)(βS-Me)]D[dNMeA]G[Bip(4'-COOH)][1Nal]L[Aib]G)), for which the IC50 was found to be 0.16 nM.

For the compound `CC(C)C[C@@H]1NC(=O)[C@H](Cc2cccc3ccccc23)NC(=O)[C@H](Cc2ccc(-c3ccc(C(=O)O)cc3)cc2)NC(=O)CNC(=O)[C@@H](C)N(C)C(=O)[C@H](CC(=O)O)NC(=O)[C@H]([C@@H](C)c2c[nH]c3cccc(Cl)c23)NC(=O)[C@@H]2C[C@@H](N)CN2C(=O)CNC(=O)[C@H](Cc2ccc(C(=O)O)cc2)NC(=O)[C@H](Cc2c[nH]c3ccccc23)NC(=O)[C@H](Cc2ccc(-c3ccc(C(=O)O)cc3)cc2)NC(=O)[C@H](CCc2ccc(O)cc2)NC(=O)C(C)(C)NC1=O` [Example 36] (cyclo([Bip(4'-COOH)]W[Phe(4-COOH)]G[Pro(4R-NH2)][Trp(4-Cl)(βS-Me)]D[dNMeA]G[Bip(4'-COOH)][1Nal]L[Aib][hTyr])), the IC50 was found to be 0.0522 nM.

In the case of `C[C@@H]1C(=O)NCC(=O)N[C@@H](Cc2ccc(-c3ccc(C(=O)O)cc3)cc2)C(=O)N[C@@H](Cc2cccc3ccccc23)C(=O)N[C@@H](CCCN)C(=O)NC(C)(C)C(=O)NCC(=O)N[C@@H](Cc2ccc(-c3ccc(C(=O)O)cc3)cc2)C(=O)N[C@@H](Cc2c[nH]c3ccccc23)C(=O)N[C@@H](Cc2ccc(C(=O)O)cc2)C(=O)NCC(=O)N2C[C@H](N)C[C@H]2C(=O)N[C@@H]([C@@H](C)c2c[nH]c3cccc(Cl)c23)C(=O)N[C@@H](CC(=O)O)C(=O)N1C` [Example 37] (cyclo([Bip(4'-COOH)]W[Phe(4-COOH)]G[Pro(4R-NH2)][Trp(4-Cl)(βS-Me)]D[dNMeA]G[Bip(4'-COOH)][1Nal][Orn][Aib]G)), the half-inhibitory concentration (IC50) turned out to be 0.103 nM.

Regarding `C[C@@H]1C(=O)NCC(=O)N[C@@H](Cc2ccc(-c3ccc(C(=O)O)cc3)cc2)C(=O)N[C@@H](Cc2cccnc2)C(=O)N[C@@H](CO)C(=O)N[C@H](C)C(=O)N[C@@H](CCc2ccc(O)cc2)C(=O)N[C@@H](Cc2ccc(-c3ccc(C(=O)O)cc3)cc2)C(=O)N[C@@H](Cc2c[nH]c3ccccc23)C(=O)N[C@@H](Cc2ccc(C(=O)O)cc2)C(=O)NCC(=O)N2C[C@H](N)C[C@H]2C(=O)N[C@@H]([C@@H](C)c2c[nH]c3cccc(Cl)c23)C(=O)N[C@@H](CC(=O)O)C(=O)N1C` [Example 38] (cyclo([Bip(4'-COOH)]W[Phe(4-COOH)]G[Pro(4R-NH2)][Trp(4-Cl)(βS-Me)]D[dNMeA]G[Bip(4'-COOH)][3Pal]S[dA][hTyr])), the IC50 amounted to 0.217 nM.

Consider `C[C@@H]1C(=O)NCC(=O)N[C@@H](Cc2ccc(-c3ccc(C(=O)O)cc3)cc2)C(=O)N[C@@H](Cc2ccncc2)C(=O)N[C@@H](CO)C(=O)N[C@H](C)C(=O)N[C@@H](CCc2ccc(O)cc2)C(=O)N[C@@H](Cc2ccc(-c3ccc(C(=O)O)cc3)cc2)C(=O)N[C@@H](Cc2c[nH]c3ccccc23)C(=O)N[C@@H](Cc2ccc(C(=O)O)cc2)C(=O)NCC(=O)N2C[C@H](N)C[C@H]2C(=O)N[C@@H]([C@@H](C)c2c[nH]c3cccc(Cl)c23)C(=O)N[C@@H](CC(=O)O)C(=O)N1C` [Example 39] (cyclo([Bip(4'-COOH)]W[Phe(4-COOH)]G[Pro(4R-NH2)][Trp(4-Cl)(βS-Me)]D[dNMeA]G[Bip(4'-COOH)][4Pal]S[dA][hTyr])), for which the IC50 stood at 0.232 nM.

As for `C[C@@H]1C(=O)NCC(=O)N[C@@H](Cc2ccc(-c3ccc(C(=O)O)cc3)cc2)C(=O)N[C@@H](CC2CCNCC2)C(=O)N[C@@H](CO)C(=O)N[C@H](C)C(=O)N[C@@H](CCc2ccc(O)cc2)C(=O)N[C@@H](Cc2ccc(-c3ccc(C(=O)O)cc3)cc2)C(=O)N[C@@H](Cc2c[nH]c3ccccc23)C(=O)N[C@@H](Cc2ccc(C(=O)O)cc2)C(=O)NCC(=O)N2C[C@H](N)C[C@H]2C(=O)N[C@@H]([C@@H](C)c2c[nH]c3cccc(Cl)c23)C(=O)N[C@@H](CC(=O)O)C(=O)N1C` [Example 40] (cyclo([Bip(4'-COOH)]W[Phe(4-COOH)]G[Pro(4R-NH2)][Trp(4-Cl)(βS-Me)]D[dNMeA]G[Bip(4'-COOH)][Ala(piperidin-4-yl)]S[dA][hTyr])), the half-maximal inhibitory concentration (IC50) worked out at 0.508 nM.

As to `C[C@@H]1C(=O)NCC(=O)N[C@@H](Cc2ccc(-c3ccc(C(=O)O)cc3)cc2)C(=O)N[C@@H](CN)C(=O)N[C@@H](CO)C(=O)N[C@H](C)C(=O)N[C@@H](CCc2ccc(O)cc2)C(=O)N[C@@H](Cc2ccc(-c3ccc(C(=O)O)cc3)cc2)C(=O)N[C@@H](Cc2c[nH]c3ccccc23)C(=O)N[C@@H](Cc2ccc(C(=O)O)cc2)C(=O)NCC(=O)N2C[C@H](N)C[C@H]2C(=O)N[C@@H]([C@@H](C)c2c[nH]c3cccc(Cl)c23)C(=O)N[C@@H](CC(=O)O)C(=O)N1C` [Example 41] (cyclo([Bip(4'-COOH)]W[Phe(4-COOH)]G[Pro(4R-NH2)][Trp(4-Cl)(βS-Me)]D[dNMeA]G[Bip(4'-COOH)][Dap]S[dA][hTyr])), the IC50 is 0.469 nM.

With `CC(C)C[C@@H]1NC(=O)[C@H](CCCCN)NC(=O)[C@H](Cc2ccc(-c3ccc(C(=O)O)cc3)cc2)NC(=O)CNC(=O)[C@@H](C)N(C)C(=O)[C@H](CC(=O)O)NC(=O)[C@H]([C@@H](C)c2c[nH]c3cccc(Cl)c23)NC(=O)[C@@H]2C[C@@H](N)CN2C(=O)CNC(=O)[C@H](Cc2ccc(C(=O)O)cc2)NC(=O)[C@H](Cc2c[nH]c3ccccc23)NC(=O)[C@H](Cc2ccc(-c3ccc(C(=O)O)cc3)cc2)NC(=O)[C@H](CCc2ccc(O)cc2)NC(=O)[C@@H](C)NC1=O` [Example 42] (cyclo([Bip(4'-COOH)]W[Phe(4-COOH)]G[Pro(4R-NH2)][Trp(4-Cl)(βS-Me)]D[dNMeA]G[Bip(4'-COOH)]KL[dA][hTyr])), the IC50 is 0.627 nM.

For `CC(C)C[C@@H]1NC(=O)[C@H](CCCCN)NC(=O)[C@H](Cc2ccc(-c3ccc(C(=O)O)cc3)cc2)NC(=O)CNC(=O)[C@@H](C)N(C)C(=O)[C@H](CC(=O)O)NC(=O)[C@H]([C@@H](C)c2c[nH]c3cccc(Cl)c23)NC(=O)[C@@H]2C[C@@H](N)CN2C(=O)CNC(=O)[C@H](Cc2ccc(C(=O)O)cc2)NC(=O)[C@H](Cc2c[nH]c3ccccc23)NC(=O)[C@H](Cc2ccc(-c3ccc(C(=O)O)cc3)cc2)NC(=O)[C@H](CCc2ccc(O)cc2)NC(=O)[C@@H](CCN)NC1=O` [Example 43] (cyclo([Bip(4'-COOH)]W[Phe(4-COOH)]G[Pro(4R-NH2)][Trp(4-Cl)(βS-Me)]D[dNMeA]G[Bip(4'-COOH)]KL[dDab][hTyr])), the concentration for half-maximal inhibition (IC50) is 0.244 nM.

For the compound `CC(C)C[C@@H]1NC(=O)[C@H](CCCCN)NC(=O)[C@H](Cc2ccc(-c3ccc(C(=O)O)cc3)cc2)NC(=O)CNC(=O)[C@@H](C)N(C)C(=O)[C@H](CC(=O)O)NC(=O)[C@H]([C@@H](C)c2c[nH]c3cccc(Cl)c23)NC(=O)[C@@H]2C[C@@H](N)CN2C(=O)CNC(=O)[C@H](Cc2ccc(C(=O)O)cc2)NC(=O)[C@H](Cc2c[nH]c3ccccc23)NC(=O)[C@H](Cc2ccc(-c3ccc(C(=O)O)cc3)cc2)NC(=O)[C@H](CCc2ccc(O)cc2)NC(=O)[C@@H](CO)NC1=O` [Example 44] (cyclo([Bip(4'-COOH)]W[Phe(4-COOH)]G[Pro(4R-NH2)][Trp(4-Cl)(βS-Me)]D[dNMeA]G[Bip(4'-COOH)]KL[dS][hTyr])), the IC50 is 0.132 nM.

With `C[C@@H]1C(=O)NCC(=O)N[C@@H](Cc2ccc(-c3ccc(C(=O)O)cc3)cc2)C(=O)N[C@@H](CCCCN)C(=O)N[C@@H](CO)C(=O)N[C@H](C)C(=O)N[C@@H](CCc2ccc(O)cc2)C(=O)N[C@@H](Cc2ccc(-c3ccc(C(=O)O)cc3)cc2)C(=O)N[C@@H](Cc2c[nH]c3ccccc23)C(=O)N[C@@H](Cc2ccc(C(=O)O)cc2)C(=O)NCC(=O)N2C[C@H](N)C[C@H]2C(=O)N[C@@H]([C@@H](C)c2c[nH]c3cccc(Cl)c23)C(=O)N[C@@H](CC(=O)O)C(=O)N1C` [Example 45] (cyclo([Bip(4'-COOH)]W[Phe(4-COOH)]G[Pro(4R-NH2)][Trp(4-Cl)(βS-Me)]D[dNMeA]G[Bip(4'-COOH)]KS[dA][hTyr])), the half-maximal inhibitory concentration (IC50) is 0.174 nM.
